Columns and labels:
[1] = system: normal mice; test: Lowering of blood glucose level in normal mice; assay type: in vivo; details: intraperitoneal, 20-24 μg/mouse
Procedure: FIGS. 7A-B. Effect of SPC-insulins on lowering blood glucose level in vivo. The purified yeast-(FIG. 7A) or E. coli-(FIG. 7B) expressed SPC-insulin-P (p-insulin) and SPC-insulin-PP (2p-insulin) (20-24 μg/mouse) was injected (intraperitoneally) into normal mice. The glucose levels of the blood collected from tail vein at the increasing time points were measured using Contour^next One glucose meter (n=6). Humulin R (20-24 μg/mouse) was used as a positive control (n=6, M±SE). The mice were under normal diets.
FIGS. 8A-B. (FIG. 8A) Effect of SPC-insulins on lowering blood glucose level of normal mice using subcutaneous injection. The yeast-expressed SPC-insulin-P (p-insulin) and SPC-insulin-PP (2p-insulin) (20-30 μg/mouse) was injected subcutaneously into the normal mice (n=6). (FIG. 8B) Effects of the purified E. coli-expressed SPC-insulins on lowering blood glucose level of STZ-induced type-1 diabetic mice. 20-30 μg/mouse of the purified E. coli-expressed SPC-P (P-insulin) or SPC-insulin-PP (PP-insulin) was intraperitoneally injected into the STZ-induced Type-1 diabetic mice (with an elevated blood glucose levels of 370-400 mg/dl, n=6). The glucose levels of the blood collected from the mouse tail vein at the increasing time points were measured using Contour^next One glucose meter. Humulin R (20-24 μg/mouse) was used as a positive control (n=6, M±SE). […]

[2] = system: STZ-induced type-1 diabetic mice; test: Lowering of blood glucose level in STZ-induced type-1 diabetic mice; assay type: in vivo; details: intraperitoneal, 20-30 μg/mouse; for start of working after injection: purified E. coli-expressed
Procedure: FIGS. 8A-B. (FIG. 8A) Effect of SPC-insulins on lowering blood glucose level of normal mice using subcutaneous injection. The yeast-expressed SPC-insulin-P (p-insulin) and SPC-insulin-PP (2p-insulin) (20-30 μg/mouse) was injected subcutaneously into the normal mice (n=6). (FIG. 8B) Effects of the purified E. coli-expressed SPC-insulins on lowering blood glucose level of STZ-induced type-1 diabetic mice. 20-30 μg/mouse of the purified E. coli-expressed SPC-P (P-insulin) or SPC-insulin-PP (PP-insulin) was intraperitoneally injected into the STZ-induced Type-1 diabetic mice (with an elevated blood glucose levels of 370-400 mg/dl, n=6). The glucose levels of the blood collected from the mouse tail vein at the increasing time points were measured using Contour^next One glucose meter. Humulin R (20-24 μg/mouse) was used as a positive control (n=6, M±SE). STZ-Control=oval; Hummulin R=rectangle; SPC-Insulin-P=upward pointing triangle; SPC-Insulin-PP=downward pointing triangle.
The second animal model is the STZ-induced type-1 diabetic mouse. The mice received STZ injection quickly developed into type 1 diabetes because STZ destroyed the insulin-producing cells in pancreas and elevated the glucose level (FIGS. 8A-B, blood glucose level labeled with STZ). The both of the purified SPC-insulin-P and -PP were tested on the diabetic mice. Similar to that of the normal mice, the SPC-insulins started working around 1-1.5 hours after injection, reached to the best therapeutic effects around 4 hours, and then last for 24-48 hours (FIGS. 8A-B).

[3] = commercial insulins; cited from earlier work

Substance | duration of blood glucose lowering effect [1] [h] | duration of effect [2] [h] | time to best therapeutic effect [2] | start of working after injection [2] [h] | duration of action [3] [h]
Humulin R: commercial regular human insulin, two-chain, used as positive control | 4 to 8 | – | – | – | –
SPC-insulin-P: single polypeptide chain human insulin, b-chain C-terminus linked to a-chain N-terminus by one proline residue | – | 24 to 48 | around 4 hours | 1 to 1.5 | –
SPC-insulin-PP: single polypeptide chain human insulin, b-chain linked to a-chain by two proline residues | – | 24 to 48 | around 4 hours | 1 to 1.5 | –
insulin Detemir | – | – | – | – | 18 to 24
insulin Glargine | – | – | – | – | 18 to 24

Source: patent publication US12077568B2 (University of Houston System, priority 2018, dated 2024)
